Laboratory results as given in US12060333B2 (Hoffmann-La Roche Inc., priority 2021, dated 2024).

Each molecule was assayed against SARS-CoV-2 3CLpro (Severe acute respiratory syndrome coronavirus 2, UniProt P0DTD1) (assay: biochemical). Conditions: IC50 (μM), SARS-CoV-2 3CLPro assay.
`COc1cccc2[nH]c(C(=O)N[C@@H](CC(C)C)C(=O)NN(CCC(N)=O)C(=O)CF)cc12` [Example 30, N-[(1S)-1-[[(3-Amino-3-axo-propyl)-(2-fluoroacetyl)amino]carbamoyl]-3-methyl-butyl]-4-methoxy-1H-indole-2-carboxamide] was tested, and the IC50 was 0.16 µM. `CC(C)C[C@H](NC(=O)c1nc2ccccc2[nH]1)C(=O)NN(CCC(N)=O)C(=O)[C@@H](F)Cl` (single isomer, unassigned) [Example 63-A] was tested, and the IC50 was 0.043 µM. For `COc1cccc(NCC(=O)N[C@@H](CC(C)C)C(=O)NN(CCC(N)=O)C(=O)[C@H](F)Cl)c1` (single isomer, unassigned) [Example 83-A], the IC50 was 0.9 µM. `CC(C)C[C@H](NC(=O)c1nc2cc(Cl)ccc2[nH]1)C(=O)NN(CCC(N)=O)C(=O)[C@@H](F)Cl` (racemic) [Example 60-A, 5-chloro-N-[rac-(1S)-1-[[(3-amino-3-axo-propyl)-[rac-(2S)-2-chloro-2-fluoro-acetyl]amino]carbamoyl]-3-methyl-butyl]-1H-benzimidazole-2-carboxamide] showed an IC50 of 0.008 µM. Work on `CC(C)C[C@H](NC(=O)c1cc2cc(F)ccc2[nH]1)C(=O)NN(CCC(N)=O)C(=O)[C@H](F)Cl` (racemic) [Example 57-B, 5-fluoro-N-[rac-(1S)-1-[[(3-amino-3-oxo-propyl)-[rac-(2R)-2-chloro-2-fluoro-acetyl]amino]carbamoyl]-3-methyl-butyl]-1H-indole-2-carboxamide] yielded an IC50 of 0.01 µM. `CC(C)C[C@H](NC(=O)c1cc2cc(F)ccc2[nH]1)C(=O)NN(CCC(N)=O)C(=O)[C@@H](F)Cl` (racemic) [Example 57-A, 5-fluoro-N-[rac-(1S)-1-[[(3-amino-3-oxo-propyl)-[rac-(2S)-2-chloro-2-fluoro-acetyl]amino]carbamoyl]-3-methyl-butyl]-1H-indole-2-carboxamide] gave an IC50 of 0.067 µM. For `CC(C)C[C@H](NC(=O)OCc1ccccc1)C(=O)NN(CCC(N)=O)C(=O)[C@H](F)Cl` (single isomer, unassigned) [Example 17-B], the IC50 was 0.077 µM. `CC(C)C[C@H](NC(=O)c1cc2ccccc2[nH]1)C(=O)NN(C[C@@H]1CCNC1=O)C(=O)CF` (single isomer, unassigned) [Example 38-A] gave an IC50 of 0.074 µM. `CC(C)CC(NC(=O)c1cn2ccccc2n1)C(=O)NN(CCC(N)=O)C(=O)C(F)Cl` (racemic) [Example 95, N-[rac-(1S)-1-[[(3-amino-3-oxo-propyl)-(2-chloro-2-fluoro-acetyl)amino]carbamoyl]-3-methyl-butyl]imidazo[1,2-a]pyridine-2-carboxamide] was tested, and the IC50 was 0.65 µM. Work on `CC(C)C[C@H](NC(=O)c1nc2ccccc2[nH]1)C(=O)NN(CCC(N)=O)C(=O)[C@H](F)Cl` (single isomer, unassigned) [Example 63-B] yielded an IC50 of 0.007 µM. In the case of `CC(C)C[C@H](NC(=O)c1ncc[nH]1)C(=O)NN(CCC(N)=O)C(=O)C(F)Cl` (mixture of isomers) [Example 96, N-[rac-(1S)-1-[[(3-amino-3-oxo-propyl)-(2-chloro-2-fluoro-acetyl)amino]carbamoyl]-3-methyl-butyl]-1H-imidazole-2-carboxamide], the IC50 is reported as 0.66 µM. Molecule `NC(=O)CCN(NC(=O)[C@H](CC1CCC1)NC(=O)c1nc2ccccc2[nH]1)C(=O)C(F)Cl` (mixture of isomers) [Example 66, N-[rac-(1S)-2-[2-(3-amino-3-oxo-propyl)-2-(2-chloro-2-fluoro-acetyl)hydrazino]-1-(cyclobutylmethyl)-2-axo-ethyl]-1H-benzimidazole-2-carboxamide] has an IC50 of 0.034 µM. `CC(C)(C)C[C@H](NC(=O)c1cnccn1)C(=O)NN(CCC(N)=O)C(=O)C(F)Cl` (stereo partly drawn) [Example 78, N-[rac-(1S)-1-[[(3-amino-3-oxo-propyl)-(2-chloro-2-fluoro-acetyl)amino]carbamoyl]-3,3-dimethyl-butyl]pyrazine-2-carboxamide] showed an IC50 of 0.25 µM.

Same assay, conditions: read-out: IC50 (μM), SARS-CoV-2 3CLPro assay
In the case of `CC(C)C[C@H](NC(=O)OCc1ccccc1)C(=O)NN(CCC(N)=O)C(=O)CBr` [Example 7, Benzyl N-[(1S)-1-[[(3-amino-3-oxo-propyl)-(2-bromoacetyl)amino]carbamoyl]-3-methyl-butyl]carbamate], the IC50 is reported as 0.54 µM. Work on `Cc1cc(C(=O)N[C@@H](CC2CCCCC2)C(=O)NN(CCC(N)=O)C(=O)CCl)no1` [Example 48, N-[(1S)-2-[2-(3-amino-3-oxo-propyl)-2-(2-chloroacetyl)hydrazino]-1-(cyclohexylmethyl)-2-axo-ethyl]-5-methyl-isoxazole-3-carboxamide] yielded an IC50 of 0.004 µM. Work on `NC(=O)CCN(NC(=O)[C@H](CC1CCCCC1)NC(=O)c1cc2ccccc2[nH]1)C(=O)CF` [Example 36, N-[(1S)-2-[2-(3-Amino-3-axo-propyl)-2-(2-fluoroacetyl)hydrazino]-1-(cyclohexylmethyl)-2-axo-ethyl]-1H-indole-2-carboxamide] yielded an IC50 of 0.14 µM. For `CC(C)C[C@@H](C(=O)NN(CCC(N)=O)C(=O)CCl)N(C)C(=O)c1cc2ccccc2[nH]1` [Example 40, N-[(1S)-1-[[(3-Amino-3-axo-propyl)-(2-chloroacetyl)amino]carbamoyl]-3-methyl-butyl]-N-methyl-1H-indole-2-carboxamide], the IC50 was 0.007 µM. With `COc1cc2cc(C(=O)N[C@@H](CC(C)C)C(=O)NN(CCC(N)=O)C(=O)CCl)nc-2c[nH]1` [Example 47, N-[(1S)-1-[[(3-Amino-3-oxo-propyl)-(2-chloroacetyl)amino]carbamoyl]-3-methyl-butyl]-5-methoxy-6H-pyrrolo[2,3-c]pyridine-2-carboxamide] the IC50 was 0.014 µM. `CNC(=O)CCN(NC(=O)[C@H](CC(C)C)N(C)C(=O)c1cc2ccccc2[nH]1)C(=O)CCl` [Example 50, N-[(1S)-1-[[(2-Chloroacetyl)-[3-(methylamino)-3-oxo-propyl]amino]carbamoyl]-3-methyl-butyl]-N-methyl-1H-indole-2-carboxamide] was tested, and the IC50 was 0.074 µM. In the case of `CC(C)C[C@H](NC(=O)c1nc2ccccc2[nH]1)C(=O)NN(CCC(N)=O)C(=O)CCl` [Example 42, N-[(1S)-1-[[(3-Amino-3-axo-propyl)-(2-chloroacetyl)amino]carbamoyl]-3-methyl-butyl]-1H-benzimidazole-2-carboxamide], the IC50 is reported as 0.005 µM. For `NC(=O)CCN(NC(=O)CNC(=O)OCc1ccccc1)C(=O)CCl` [Example 1, Benzyl N-[2-[2-(3-amino-3-oxo-propyl)-2-(2-chloroacetyl)hydrazino]-2-axo-ethyl]carbamate], the IC50 was 4.59 µM. In the case of `CC(C)C[C@H](NC(=O)OCc1ccccc1)C(=O)NN(CCC(N)=O)C(=O)CCl` [Example 2, Benzyl N-[(1S)-1-[[(3-amino-3-oxo-propyl)-(2-chloroacetyl)amino]carbamoyl]-3-methyl-butyl]carbamate], the IC50 is reported as 0.017 µM. Molecule `COc1cccc2[nH]c(C(=O)N[C@@H](CC3CCCCC3)C(=O)NN(CCC(N)=O)C(=O)[C@H](F)Cl)cc12` [Example 56-B, N-[(1S)-2-[2-(3-amino-3-oxo-propyl)-2-[(2S)-2-chloro-2-fluoro-acetyl]hydrazino]-1-(cyclohexylmethyl)-2-axo-ethyl]-4-methoxy-1H-indole-2-carboxamide] has an IC50 of 0.003 µM. Molecule `NC(=O)CCN(NC(=O)[C@H](CC1CCCCC1)NC(=O)/C=C/c1ccc(Cl)cc1F)C(=O)CCl` [Example 33, 3-[(2-Chloroacetyl)-[[(2S)-2-[[(E)-3-(4-chloro-2-fluoro-phenyl)prop-2-enoyl]amino]-3-cyclohexyl-propanoyl]amino]amino]propanamide] has an IC50 of 0.002 µM.
